# Measured values published in paper PMC12040169 (PLOS Biology, 2025).
# Test: in vitro
# Details: human, hela cells, % viability
row,SMILES,"viability at 28.5 h, 10 µM [%]"
1,Cc1ccc2[nH]c(CNC(=O)c3cn[nH]c3C3CCCCN3)nc2c1 (stereo not shown) [CBK304741],100
2,CN(Cc1ccc(Cl)c(F)c1)C(=O)c1cn[nH]c1C1CCCCN1 (stereo not shown) [CBK304742],103
3,NC(=O)c1cn[nH]c1C1CCCCN1Cc1cccc2c1CCOC2 (stereo not shown) [CBK304745],83.1
4,N#Cc1cc(Cl)ccc1CN1CCCCC1c1[nH]ncc1C(N)=O (stereo not shown) [CBK304746],88.5
5,Cc1noc(C2(O)CCN(Cc3cccc(Cl)c3F)C2)n1 (stereo not shown) [CBK304748],99.3
6,CCn1nncc1CNC1CCc2[nH]c3ccc(C)cc3c2C1 (stereo not shown) [CBK304749],98.3
7,CCOc1cccc(CN2CCCCC2c2[nH]ncc2C(N)=O)n1 (stereo not shown) [CBK304750],98.9
8,CC(C)OCC1CN(c2cc(CO)c(F)cn2)CCO1 (stereo not shown) [CBK304755],89.7
9,Cn1nnc2cc(NCC34CC3CN(C(=O)OC(C)(C)C)C4)ccc21 (stereo not shown) [CBK304758],92.7
10,CCOC(=O)C1CSCN1C(=O)c1cnn(C(CC)CC)c1C (stereo not shown) [CBK304759],106
11,O=C(CC1CCCO1)N1CCn2c(nnc2-c2cncc(Br)c2)C1 (stereo not shown) [CBK304762],91.4
12,CCOCCCC(=O)N1CCn2c(nnc2-c2cncc(Br)c2)C1 [CBK304764],91.5
13,CNS(=O)(=O)c1ccc(C(C)NC(=O)N2CCN3CCC2CC3)cc1 (stereo not shown) [CBK304765],92.2
14,N#Cc1ccc(CN2CCC(NC3CCCn4nccc43)C2=O)cc1 (stereo not shown) [CBK304770],97.8
15,Cc1conc1C(=O)N1CCCCC1CN1CCOCC1 (stereo not shown) [CBK304771],92.7
16,CC1CN(c2cc(CO)c(F)cn2)CC2(CCOCC2)O1 (stereo not shown) [CBK304773],91.9
17,CC1OCCC12CN(c1cc(CO)c(F)cn1)CCO2 (stereo not shown) [CBK304775],102
18,Cn1ncc2ccc(-c3nnn[nH]3)cc21 [CBK304776],93
19,Cc1cc(N2CCN(C(=O)CCc3nccs3)CC2)nc(C(C)C)n1 [CBK304778],98.8
20,Cc1nc(C(C)NC(=O)c2cc(C3CC3)nc3c2c(C)nn3C)cs1 (stereo not shown) [CBK304779],93.7
21,COCC(=O)N(C)C(CO)c1cc(OC)ccc1Br (stereo not shown) [CBK304780],88.7
22,Cn1c(CN2CCN(c3ccc(C#N)cn3)CC2)nnc1C1CC1 [CBK304781],92.5
23,CC(CN(C)C(=O)c1cn[nH]c1C1CCNC1)Oc1ccc(Cl)c(Cl)c1 (stereo not shown) [CBK304786],91.1
24,Cc1nc(C)n(CC2CCCN(Cc3cc(C#N)cs3)C2)n1 (stereo not shown) [CBK304787],92
25,CCn1c(=O)n(CC2(O)CCCOC2)c2cc(S(=O)(=O)N(C)C)ccc21 (stereo not shown) [CBK304788],90.6

row,SMILES,"viability at 28.5 h, 10 µM [%]"
1,CN(C)c1ncccc1OC1CCN(c2nnc(C(F)(F)F)s2)C1 (stereo not shown) [CBK304789],97.1
2,CCn1cc(S(=O)(=O)NC2CCc3[nH]c4ccc(C)cc4c3C2)cn1 (stereo not shown) [CBK304790],99.7
3,Fc1cc(Br)c(CNCc2cocn2)c(N2CCCCC2)c1F [CBK304792],86.8
4,CCc1csc(C2CN3CCCC3CO2)n1 (stereo not shown) [CBK304793],89.4
5,COCCNS(=O)(=O)c1ccc(Br)c(C(=O)N(C)Cc2cnn(C)c2)c1 [CBK304795],96.6
6,CCN(CC(C)C#N)C(=O)c1ccc2ccccc2n1 (stereo not shown) [CBK304801],96.6
7,CCCOC1CCCN(C(=O)c2cc(Cl)c[nH]2)C1 (stereo not shown) [CBK304802],97.5
8,CCC(CNC(=O)c1cccc(C)n1)N1CCCC1 (stereo not shown) [CBK304803],116
9,Cc1csc(CNCc2c(C)nn(C)c2N(C)C)n1 [CBK304804],103
10,CCC(C)c1csc(C2CN3CCCC3CO2)n1 (stereo not shown) [CBK304805],81.5
11,CC(C)Cc1csc(C2CN3CCCC3CO2)n1 (stereo not shown) [CBK304807],83.9
12,Cc1nc(CNCc2c(C)nn(C)c2N(C)C)cs1 [CBK304808],95.3
13,CCN1CCOC(CNc2ncnc3c2CCC3)C1 (stereo not shown) [CBK304811],106
14,c1ccc(C(NCc2cncs2)C2CCCC2)cc1 (stereo not shown) [CBK304812],82.6
15,c1sc(C2CN3CCCC3CO2)nc1C1CCCC1 (stereo not shown) [CBK304814],90.4
16,COc1ccnc(N2CCc3c(ncn3C3CC3)C2)n1 [CBK304816],95.7
17,COCCNC(=O)N1CCN(Cc2ccccn2)CC1 [CBK304817],110
18,COCC1CCCN(Cc2cn(C)nc2C(C)(C)C)C1 (stereo not shown) [CBK304818],108
19,Cc1occc1-c1nnc(NCc2cnn(C)c2C)o1 [CBK304819],92.3
20,CC(C)C(CNCc1ccsc1)c1ccnn1C (stereo not shown) [CBK304821],93.9
21,CC(C)C(CNCc1ccn(C)c1)c1ccnn1C (stereo not shown) [CBK304822],91
22,CCSC1CCC(N(C)CC(=O)NCc2ccco2)C1 (stereo not shown) [CBK304823],84.3
23,CCC(=O)N(C)C1CCN(c2ncnc3ccccc23)CC1 [CBK304829],91.8
24,CN1CCOC(CNCc2ccc(OCC(N)=O)cc2)C1 (stereo not shown) [CBK304830],102
25,Cc1cc(C)n(CC(C)CNC(=O)CCCN(C)C)n1 (stereo not shown) [CBK304831],93

row,SMILES,"viability at 28.5 h, 10 µM [%]"
1,CCOC(=O)C1(O)CCN(c2ccc(C#N)cc2F)CC1 [CBK304836],94
2,CCCCn1nccc1NC(=O)NC(C)c1ccncc1 (stereo not shown) [CBK304840],99.2
3,CCCc1n[nH]c(C2CN(CCn3cccn3)CCO2)n1 (stereo not shown) [CBK304842],106
4,Cc1noc(C)c1CN1CC2CCN(c3ccccc3)C2C1 (stereo not shown) [CBK304847],99.7
5,CCOC(=O)C1CCCN(Cc2nnsc2Cl)C1 (stereo not shown) [CBK304848],95.7
6,Cn1cc(C2CCCN2C(=O)c2cccc(C#N)c2)cn1 (stereo not shown) [CBK304849],98
7,COCCOC1CN(Cc2cn(-c3ccc(Br)cc3)nc2C(C)C)C1 [CBK304852],87.7
8,CC1CCC(C(N)=O)CN1c1cc(Br)ccn1 (stereo not shown) [CBK304856],94.9
9,CN(Cc1ccco1)C(=O)c1cccc(NC(=O)C2CC2)c1 [CBK304857],101
10,COc1cccc(CNCC(c2ccnn2C)C(C)C)n1 (stereo not shown) [CBK304858],105
11,COc1cccc(CC(=O)N(CCC#N)Cc2ccco2)c1 [CBK304859],92.5
12,O=C(Nc1cccc(F)c1)N(CCO)Cc1cccnc1 [CBK304860],104
13,CCCn1ccc(CNCC(c2ccnn2C)C(C)C)c1 (stereo not shown) [CBK304861],87
14,COc1ccc(C(=O)N(CCC#N)Cc2ccco2)cc1 [CBK304862],93.5
15,CCCn1cc(NC(=O)NC(C)(CC)CO)ccc1=O (stereo not shown) [CBK304864],88.7
16,O=C(c1ccc2[nH]ccc2c1)N1CCN(CC2CCOC2)CC1 (stereo not shown) [CBK304866],111
17,CN(C)C(=O)c1cccc(S(=O)(=O)NCC2CCCO2)c1 (stereo not shown) [CBK304867],93.2
18,COC(=O)c1cccc2c1CCCN2Cc1nnc(C2CC2)o1 [CBK304868],90.2
19,CC(Sc1nncs1)C(=O)N1CCCc2ccccc21 (stereo not shown) [CBK304871],94.6
20,Cc1ccccc1OCC(O)CN1CCCC(C(F)(F)F)C1 (stereo not shown) [CBK304873],103
21,CC(=O)Nc1cccc(NCc2csc(C3CCCC3)n2)c1 [CBK304874],110
22,COc1ccc(CNC2CCCc3c2cnn3C)c(OC)c1 (stereo not shown) [CBK304875],103
23,COC(=O)c1cccn2cc(CN3CCOCC3(C)C)nc12 [CBK304879],93.8
24,CCN(Cc1cn2cccc(C(=O)OC)c2n1)CC1CCOC1 (stereo not shown) [CBK304880],96.6
25,COC1CCN(C2CCc3c(Cl)cc(Cl)cc32)CC1 (stereo not shown) [CBK304883],90.6

row,SMILES,"viability at 28.5 h, 10 µM [%]"
1,COCCNC(=O)c1nn(-c2cccc(C(C)C)c2)cc1O [CBK304884],90.8
2,Cc1ccc(S(=O)(=O)N(CCO)CC2CC2)c(Cl)c1 [CBK304885],75
3,COCCOCCCC(=O)OCC1Cc2cc(F)ccc2O1 (stereo not shown) [CBK304886],91.2
4,Cc1cccc(OCC(C)NC(=O)NCCc2cnn(C)c2)c1 (stereo not shown) [CBK304887],98.5
5,CS(=O)(=O)NC1CCCN(Cc2nc(N)c3ccccc3n2)C1 (stereo not shown) [CBK304889],93.8
6,CC(C)Cn1ncc2cc(C(=O)Nc3cccnc3N(C)C)cnc21 [CBK304891],87.1
7,CCn1c(=O)n(CC(C)(C)O)c2cc(S(=O)(=O)N(C)C)ccc21 [CBK304893],92.8
8,COc1ccnc(N2CCN(C(=O)c3cncnc3C)CC2)n1 [CBK304894],104
9,Cc1nc2ccccc2c(C)c1CC(=O)N(C)Cc1cnn(C)c1 [CBK304895],96.1
10,CC(=O)N1CCN(CCNc2ncnc3sc4c(c23)CCC(C)C4)CC1 (stereo not shown) [CBK304897],93
11,COc1ccnc(N2CCN(C(=O)c3cnn(C)c3C3CC3)CC2)n1 [CBK304900],85.3
12,COC(=O)c1ccc(N2CCN(Cc3nc(C)c(C)o3)C(C)C2)cc1 (stereo not shown) [CBK304903],105
13,O=C(Nc1ncn(CC(=O)N2CCCCCC2)n1)c1cccc(F)c1 [CBK304904],87.5
14,Cc1nc(-c2cccnc2)[nH]c(=O)c1CC(=O)N(C)C1CCCC1 [CBK304907],83
15,Cc1cc(NC(=O)CCN2CCC(N3CCNC3=O)CC2)no1 [CBK304909],89.9
16,N#CC1(NC(=O)CN2CCOC(Cn3cccn3)C2)CCCC1 (stereo not shown) [CBK304911],95.8
17,O=C1CCC(C(=O)N2CC3(CCCC3)c3c(F)cccc32)CN1 (stereo not shown) [CBK304914],85.7
18,Cc1cccc(OCC(=O)Nc2ncn(Cc3cccnc3)n2)c1 [CBK304919],95.9
19,Cn1cc(CN2CCCN(C(=O)c3cc4ccccc4[nH]3)CC2)cn1 [CBK304920],96
20,CCN(CC(C)C#N)C(=O)c1nn(-c2ccccc2)c(C)cc1=O (stereo not shown) [CBK304925],109
21,CC(NS(=O)(=O)Cc1ccccc1Cl)C(=O)N1CCCCC1 (stereo not shown) [CBK304928],93.7
22,Cc1nc(CN2CCCC(NCc3cccc(C(N)=O)c3)C2)no1 (stereo not shown) [CBK304929],94.2
